According to PubChem BioAssay (NCI):
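Tested at 5 concentrations; 48 h exposure; 96-well plates; endpoints linearly interpolated, else capped at highest concentration. GI50 marks 50% less growth. TGI marks complete inhibition of growth.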

Key:
Test in all cases: growth of human tumour cells (NCI), 48 h
A549 NSCLC = tested on: A549 NSCLC
CAKI-1 renal = tested on: CAKI-1 renal
EKVX NSCLC = tested on: EKVX NSCLC
K-562 leukemia = tested on: K-562 leukemia
MALME-3M melanoma = tested on: MALME-3M melanoma
NCI-H226 lung = tested on: NCI-H226 lung
NCI-H23 lung = tested on: NCI-H23 lung
SK-MEL-2 melanoma = tested on: SK-MEL-2 melanoma
UACC-62 melanoma = tested on: UACC-62 melanoma
A498 renal = tested on: A498 renal

Row | Structure (SMILES) | TGI (A549 NSCLC) | TGI (CAKI-1 renal) | TGI (EKVX NSCLC) | TGI (K-562 leukemia) | TGI (MALME-3M melanoma) | TGI (NCI-H226 lung) | TGI (NCI-H23 lung) | TGI (SK-MEL-2 melanoma) | TGI (UACC-62 melanoma) | TGI (A498 renal) | GI50 (A498 renal) | GI50 (EKVX NSCLC) | GI50 (MALME-3M melanoma) | GI50 (NCI-H226 lung) | GI50 (NCI-H23 lung) | GI50 (SK-MEL-2 melanoma) | GI50 (UACC-62 melanoma)
1 | CCOC(=O)C(Cl)(NC(=O)c1c(F)c(F)c(F)c(F)c1F)C(F)(F)F (stereo not drawn) | > 100 µM | 36.4 µM | > 100 µM | > 100 µM | > 100 µM | > 100 µM | > 100 µM | > 100 µM | > 100 µM |  |  |  |  |  |  |  | 
2 | Cc1ccc(O)c(-c2cc(-c3cccc(Cl)c3)c(C#N)c(N)n2)c1 | 43.4 µM | > 100 µM | 58.9 µM | 48.4 µM | 58.1 µM | 55.4 µM | 77.6 µM | 31.6 µM | 35.9 µM |  |  |  |  |  |  |  | 
3 | N=c1c2c(-c3ccccc3)c[nH]c2ncn1N | > 100 µM | > 100 µM | > 100 µM | > 100 µM |  | > 100 µM | > 100 µM | > 100 µM | > 100 µM | > 100 µM |  |  |  |  |  |  | 
4 | Cc1ccc(-n2[nH]nc(C#N)c2=O)cc1 | > 100 µM | > 100 µM | > 100 µM | > 100 µM | > 100 µM | > 100 µM | > 100 µM | > 100 µM | > 100 µM |  |  |  |  |  |  |  | 
5 | CCCCCCCCCCCCCC[n+]1ccc2c(C)c3c(c(C)c2c1)c1cc(O)ccc1n3CC |  |  | 2.56 µM |  | 0.706 µM | 1.96 µM | 1.02 µM | 0.774 µM | 1.87 µM | 1.27 µM | 0.327 µM | 0.554 µM | 0.233 µM | 0.418 µM | 0.223 µM | 0.256 µM | 0.468 µM
6 | CC(C)C1=CCC2C(=C1)CCC1C(C)(C(=O)O)CCCC21C (stereo not drawn) (tested in a mixture with another compound) | > 100 µM | > 100 µM | > 100 µM |  | > 100 µM | > 100 µM | > 100 µM | > 100 µM | > 100 µM | > 100 µM |  |  |  |  |  |  | 
7 | O=c1[nH]c(Nc2cc(Cl)cc(Cl)c2)nc2nc[nH]c12 | > 75 µM | > 75 µM | > 75 µM | > 75 µM | > 75 µM | > 75 µM | > 75 µM | > 75 µM | > 75 µM |  |  |  |  |  |  |  | 
8 | O=C1CCCC/C1=C\c1ccc(Br)cc1 | 67.7 µM | 32.1 µM | 62.8 µM | 31.7 µM | 21.5 µM |  | 33.2 µM | 46.4 µM | 19.6 µM |  |  |  |  |  |  |  | 
9 | COc1ccc(/C=C2\N=C(c3ccccc3)N(N=C3NC(=O)CC(=O)N3)C2=O)cc1 | > 100 µM | > 100 µM |  | > 100 µM | > 100 µM | > 100 µM | > 100 µM | > 100 µM | > 100 µM | > 100 µM |  |  |  |  |  |  | 
10 | CC(C)[Si](OC1=CCC[C@H]2NC(=O)[C@@H](Cc3ccccc3)[C@@]12C)(C(C)C)C(C)C | 12.6 µM | 14.6 µM | 15 µM | 12.5 µM | 34.3 µM |  | 18.9 µM | 29.7 µM | 22.4 µM | 19.2 µM |  |  |  |  |  |  | 
11 | Cc1cccnc1/N=C/c1c(O)n(C)c(=O)[nH]c1=O | > 100 µM | > 100 µM | > 100 µM |  | 87.7 µM | > 100 µM | > 100 µM | > 100 µM | > 100 µM | > 100 µM |  |  |  |  |  |  | 
